Ends that are not written are not given here.
Test system: COVID19 anti-S1 IgG
Assay: UV-vis aggregation test of peptide-coated nanoparticles (Examples 1, 6, 7, 8)
Format: binding
Conditions: silver nanoparticles (AgNP, 10 nm), streptavidin-biotin

With “S14P5-Ag: S14P5 epitope conjugated onto silver nanoparticles (AgNP, 10 nm) through the streptavidin-biotin approach (TESNKKFLPFQQFGRDIA; also: conjugated to silver nanoparticles via streptavidin-biotin)” the “response upon introduction of COV19 anti-S1 IgGs” value was “visible nanoparticle precipitation”.
